The results in this text go back to ChEMBL document CHEMBL4251694 (ACS Med Chem Lett, 2018).

For test [1], the system named is Influenza A virus. In words: Antiviral activity against Influenza A virus A/WSN/33 H1N1 harboring N31S mutant infected in MDCK cells assessed as reduction in virus-induced cytopathic effect by crystal violet staining based light-microscopic analysis. It is filed as functional, organism-based, A/WSN/1933(H1N1). A general note: Cytopathic effects are the visible damage that an infection or toxin causes in cultured cells.

For test [2], the target named is Matrix protein 2 (Influenza A virus (A/Udorn/307/1972(H3N2)), UniProt P0DOF8, S31N). Description: Binding affinity to Influenza A virus A/Udorn/72 M2 proton channel S31N mutant expressed in Xenopus laevis oocytes at pH 5.5 by two-electrode voltage clamp assay. It is filed as cell-based, Influenza A virus (A/udorn/1972(H3N2)).
Test [3] has the same target. In words: Binding affinity to Influenza A virus A/Udorn/72 M2 proton channel S31N mutant by isothermal calorimetric titration. The arrangement: species or system Influenza A virus (A/udorn/1972(H3N2)).

Turning to `C[C@@H](N)C12CC3CC(CC(C3)C1)C2`, in test [1], the concentration for a half-maximal effect (EC50) was 0.04 µM.

Turning to `C[C@H](N)C12CC3CC(CC(C3)C1)C2`, the concentration for a half-maximal effect (EC50) in test [1] is 0.02 µM.

`CC(C)(N)C12CC3CC(CC(C3)C1)C2`: the EC50 in test [1] was 0.03 µM. In addition, binding in test [2] was characterised by a dissociation constant (Kd) of 444 µM.

In the case of `CCC(N)(CC)C12CC3CC(CC(C3)C1)C2`, the EC50 in test [1] was found to be 1.01 µM.

Regarding `CCCC(N)(CCC)C12CC3CC(CC(C3)C1)C2`, the Kd in test [3] is more than 10 µM; in test [2], 1800 µM. The EC50 in test [1] amounted to 1.06 µM.

On to `NC12CC3CC(CC(C3)C1)C2` [AMANTADINE], for which the EC50 in test [1] worked out at 0.48 µM.

With `CCOC(=O)C1=C[C@@H](OC(CC)CC)[C@H](NC(C)=O)[C@@H](N)C1` [OSELTAMIVIR], in test [1], the EC50 was 0.02 µM.

Regarding `CC(N)C12CC3CC(CC(C3)C1)C2` (stereo unspecified) [RIMANTADINE], in test [1], the EC50 was 0.04 µM.

In general, EC50 refers to the midpoint of the concentration-response curve. One may read the Kd as the equilibrium constant for the complex coming apart. High values mean lower affinity, low ones higher affinity.
